From patent US11213484B2, “Dipivefrin orally disintegrating tablet formulations” (priority 2019, dated 2022)

Legend:
[1] = Oral absorption (general statements); assay type: in vivo; settings: orally administered
[2] = cited from earlier work
[3] = cited from earlier work; remark: listed apart in the source
[4] = well known in the art; cited from earlier work

CNCC(O)c1ccc(OC(=O)C(C)(C)C)c(OC(=O)C(C)(C)C)c1 (centres unmarked) [Dipivefrin, 4-(1-hydroxy-2-(methylamino)ethyl)-1,2-phenylene bis(2,2-dimethylpropanoate)]
absorption after oral administration [1]: well absorbed
amount entering the rabbit eye relative to epinephrine [2]: eight to ten times more
dipivefrin converted into epinephrine ([3]; 0.5% solution instilled in human eyes, within 30 minutes): 80%
ocular penetration relative to epinephrine (times greater) ([3]; human eyes): 17 times

CNC[C@H](O)c1ccc(O)c(O)c1 [epinephrine]
absorption when taken orally [4]: not absorbed
